In patent publication US8445491B2, “Wnt protein signalling inhibitors” (The Board of Regents of the University of Texas System, priority 2008, dated 2013):

How the values were obtained:
[1] = system: caudal fin regeneration in zebrafish; assay: caudal fin regeneration assay in zebrafish; type: in vivo; settings: for caudal fin regeneration after mechanical resection: zebrafish, compound in water 10 μM, 4 days
Procedure: FIG. 25. […] Arrows indicate the points of resection.
(§1) 6 month-old zebrafish were incubated 8 or 14 days at 28.5° C. in aquarium water supplemented with 10 μM IWR or in 0.1% DMSO as a control. Fish were fed standard diet, and solutions were changed daily. At the end of the exposure, zebrafish were incubated in 1 mM BrdU in aquarium water for 2 hrs at room temperature, then washed several times in aquarium water, anesthetized with 0.1% Tricaine, and fixed in 4% paraformaldehyde for 48 hrs at 4° C. The intestine was dissected out, dehydrated, paraffin embedded and sectioned at […] intervals. Sections were stained with Hematoxylin and Eosin or processed for BrdU immunohistochemistry as described (Shepard et al., 2005). Sections from 8 animals each from IWR and DMSO groups were independently scored by four blinded observers. The total number of intestinal folds and total number of BrdU-positive nuclei in the mid and distal sections of the intestine were counted from each section. For caudal fin regeneration assays, zebrafish, 3-6 months of age, were anaesthetized in 0.2% Tricaine and half of the fin was resected using a razor blade to remove Amputees were reared at 31° C. in tanks containing either 300 ml of water with DMSO or IWR (10 μM). Water and compounds were replenished daily for a total assay period of 4 days.

[2] = system: Wnt3A; assay: Wnt3A phase separation (lipidation) assay in HEK 293 cells; type: cell-based, human; settings: detergent solubility fractionation assay
Procedure: Biochemical studies involving L-Wnt-STF or DLD-1 cells were performed in either 48- or 6-well format with IWR (10 μM) or IWP (5 μM) compounds and/or cycloheximide (100 μM) in a 48 hr assay period. Targeting of APC using RNAi in L-cells was achieved by transfecting cells with SMARTPool APC siRNAs (50 nM; Dharmacon). E-cadherin depletion studies were performed at 4° C. using DLD-1 cells lysed in PBS/1% NP-40/protease inhibitors. For Wnt3A phase separation assays, murine Porcupine (C isoform) and human Wnt3A-myc were transfected into HEK 293 cells (6 well format, 400K cells/well) as appropriate using Effectene transfection reagent (QIAGEN). After 48 hrs of incubation, cells were lysed for 15 min, RT with PL buffer (distilled water, 10 mM tris-HCl, 150 mM NaCl)/1% TritionX-114. Lysate was briefly chilled on ice, pelleted for 10 min 4° C., and the supernatant combined with an equal volume of PL buffer/3.5% TX-114. Solutions were rotated for 15 min at 4° C., placed at 37° C. for 5 mM followed by an additional centrifugation for 5 mM at 2000 g, RT. Distinct phases were collected and combined with PL buffer to a total volume of 1 mL Samples were chilled on ice, ConA sepharose (GE Healthcare) added, and samples rotated for 2 hrs at 4° C. Beads washed 2× with PL buffer, and a Western blot performed with eluted proteins using an anti-c-myc antibody. […]

[3] = system: Wnt/β-catenin pathway response induced by Wnt1, Wnt2, or Wnt3a; assay: STF reporter, pathway activity induced by Wnt1, Wnt2 or Wnt3a; type: cell-based; settings: FL normalized to RL
Procedure: FIGS. 9A-C. […] FIG. 9A. Summary of results relating to IWR and IWP compounds from the screening process. Wnt pathway tests were performed in either cells responding to autonomously-produced Wnt protein (L-Wnt-STF cells) or exogenously provided Wnt in conditioned medium (HEK293 cells). FIG. 9B. […] Left: schematic of Wnt-Gaussia luciferase (Wnt-GL) fusion protein used to monitor levels of secreted Wnt protein in the cell medium. Right: levels of Wnt-GL but not GL secreted from cells treated with IWP compounds are decreased as compared to cells treated with carrier. The Wnt-GL protein elicits levels of Wnt/β-catenin pathway response similar to that of Wnt3a protein (data not shown). FIG. 9C. […] FL activity was normalized to control RL activity as before.

[4] = system: lung cancer and colorectal cancer cells; assay: cancer cell growth study (Cell Titer Glo); type: cell-based; settings: 6 days
Procedure: FIGS. 7A-D. Chemical inhibition of Wnt-mediated cellular responses in cancer. FIG. 7A. Growth-inhibitory effects of IWR and IWP compounds on cancerous cells. Cells derived from either lung or colon cancer, with known molecular changes that result in aberrant Wnt pathway response, were treated with increasing concentrations of either IWR-4 or IWP-1 for 6 days with medium and compounds replenished daily. Cell viability was measured using Cell-Titer Glo assays. FIG. 7B. Biochemical changes of Wnt pathway components in cancerous cells treated with either IWR or IWP compounds. Lysates from H460, or DLD-1 cells were treated with IWR or IWP and Western blotted for either Dvl2, Axin2, Axin1, or Actin. Whereas both cell lines express […], Axin2 expression is absent in H460 cells. FIG. 7C. Genetic evidence for non-β-catenin dependent Wnt-mediated signalling in cancerous cells. […]
In experiments involving IWR and IWP treatments, cancer cells were seeded into a 24 well format (2.5K cells/well) in the presence of the noted Wnt pathway inhibitors (0.5% DMSO final) Media and compound changed every 24 hours for 5 days. On day 6, ATP levels were quantitated via cell titer glo assay (Promega). […] ATP levels were measured 120 hrs later via Cell Titer Glo assay (Promega).

[5] = system: zebrafish gastrointestinal (GI) tract; assay: homeostatic renewal of the zebrafish GI tract (BrdU incorporation, histology); type: in vivo
Procedure: as §1

[6] = system: Wnt/β-catenin pathway; assay: Western blot of Wnt/β-catenin pathway markers (LRP6 and Dvl2 phosphorylation, β-catenin accumulation) in L-Wnt-STF cells; type: cell-based, mouse; settings: L-Wnt cells
From the text: FIG. 3. Biochemical evidence for Wnt/β-catenin pathway inhibition by IWR and IWP compounds. […] Cellular lysates were subjected to Western blot analysis to determine levels of LRP6 and Dvl2 phosphorylation, and β-catenin accumulation, all biochemical events associated with Wnt/β-catenin pathway activity. Predictably, IWPs blocked all three biochemical events, whereas IWRs appear to block β-catenin accumulation without affecting LRP6 and Dv12 phosphorylation. Kif3A and tubulin serve as loading controls.
(§2) Biochemical studies involving L-Wnt-STF or DLD-1 cells were performed in either 48- or 6-well format with IWR (10 μM) or IWP (5 μM) compounds and/or cycloheximide (100 μM) in a 48 hr assay period. Targeting of APC using RNAi in L-cells was achieved by transfecting cells with SMARTPool APC siRNAs (50 nM; Dharmacon). E-cadherin depletion studies were performed at 4° C. using DLD-1 cells lysed in PBS/1% NP-40/protease inhibitors. For Wnt3A phase separation assays, murine Porcupine (C isoform) and human Wnt3A-myc were transfected into HEK 293 cells (6 well format, 400K cells/well) as appropriate using Effectene transfection reagent (QIAGEN). After 48 hrs of incubation, cells were lysed for 15 min, RT with PL buffer (distilled water, 10 mM tris-HCl, 150 mM NaCl)/1% TritionX-114. […]

[7] = system: β-catenin; assay: β-catenin accumulation in L-cells treated with APC siRNAs; type: cell-based; settings: mouse L-cells treated with APC siRNAs
From the text: FIGS. 5A-H. Stabilization of the Axin2 destruction complex by IWR compounds. FIG. 5A. IWR compounds block β-catenin accumulation induced by loss of APC tumor suppressor. […] FIG. 5B. IWRs block aberrant Wnt/β-catenin pathway activity in the colorectal cancer (CRC) cells. Aberrant Wnt/β-catenin pathway activity in DLD-1 cells, CRC cells which harbor a loss-of-function mutation in APC, is abrogated by IWR compounds. Pathway activity was monitored using the STF reporter and normalized to RL control reporter as before. FIG. 5C. IWRs induce accumulation of Axin2 protein. Western blot analysis of proteins involved in regulating β-catenin levels in DLD-1 cells reveal accumulation of Axin2 protein in cells treated with IWR compounds with little change in expression levels of other pathway components. Note that the APC protein is truncated in these cells. FIG. 5D. Levels of β-catenin in CRC cells available for Wnt response are decreased in the presence of IWR compounds. […] FIG. 5E. IWR stabilizes Axin2 protein. Rapid destruction of Axin2 protein is apparent in DLD-1 cells treated with the protein synthesis inhibitor cycloheximide. […] FIG. 5F. […] FIG. 5G. […] FIG. 5H. A proposed model of IWR action. Addition of IWR to cells induces stabilization of Axin2 protein with consequential increase in β-catenin destruction. […]

[8] = system: Axin2 and β-catenin in DLD-1 cells; assay: biochemical studies of destruction complex components in DLD-1 cells (Western blot, E-cadherin depletion, cycloheximide); type: cell-based
From the text: FIGS. 5A-H. Stabilization of the Axin2 destruction complex by IWR compounds. FIG. 5A. IWR compounds block β-catenin accumulation induced by loss of APC tumor suppressor. […] FIG. 5B. IWRs block aberrant Wnt/β-catenin pathway activity in the colorectal cancer (CRC) cells. Aberrant Wnt/β-catenin pathway activity in DLD-1 cells, CRC cells which harbor a loss-of-function mutation in APC, is abrogated by IWR compounds. Pathway activity was monitored using the STF reporter and normalized to RL control reporter as before. FIG. 5C. IWRs induce accumulation of Axin2 protein. Western blot analysis of proteins involved in regulating β-catenin levels in DLD-1 cells reveal accumulation of Axin2 protein in cells treated with IWR compounds with little change in expression levels of other pathway components. Note that the APC protein is truncated in these cells. FIG. 5D. Levels of β-catenin in CRC cells available for Wnt response are decreased in the presence of IWR compounds. […] FIG. 5E. IWR stabilizes Axin2 protein. Rapid destruction of Axin2 protein is apparent in DLD-1 cells treated with the protein synthesis inhibitor cycloheximide. […] FIG. 5F. […] FIG. 5G. […] FIG. 5H. A proposed model of IWR action. Addition of IWR to cells induces stabilization of Axin2 protein with consequential increase in β-catenin destruction.
as §2, with “Targeting” for “Biochemical studies involving L-Wnt-STF or DLD-1 cells were performed in either 48- or 6-well format with IWR (10 μM) or IWP (5 μM) compounds and/or cycloheximide (100 μM) in a 48 hr assay period. Targeting”, “TritionX-114. Lysate was briefly chilled on ice, pelleted for 10 min 4° C., and the supernatant combined with an equal volume of PL buffer/3.5% TX-114.” for “TritionX-114.”

| SMILES | caudal fin regeneration after mechanical resection [1] | levels of lipidated Wnt3A [2] | pathway activity induced by Wnt1, Wnt2, or Wnt3a [3] | inhibition of cancerous cell growth [4] | fin regeneration after removal of the chemical ([1]; zebrafish bred 7 d in water containing compound, then removal) | adverse signs in treated fish ([5]; zebrafish treated for periods longer than 4 days) | BrdU-labeled cells at the base of intestinal folds ([5]; zebrafish, 10 μM in water, 8 days) | accumulation of β-catenin [6] | β-catenin accumulation induced by loss of APC [7] | levels of β-catenin not bound to E-cadherin ([8]; DLD-1 cells) | Axin2 protein turn-over ([8]; DLD-1 cells with cycloheximide) | expression of Wnt/β-catenin target gene Axin2 ([8]; DLD-1 cells, exposure for 2 h) |
| --- | --- | --- | --- | --- | --- | --- | --- | --- | --- | --- | --- | --- |
| Cc1ccc2nc(NC(=O)CSc3nc4c(c(=O)n3-c3ccccc3)SCC4)sc2c1 [IWP-2] | failed to do so | decreased | decreased | – | – | – | – | – | – | – | – | – |
| COc1ccc(-n2nc(C(=O)NCC(=O)Nc3nc4ccc(OC)cc4s3)c3ccccc3c2=O)cc1 [IWP-1] | – | – | – | consistently more effective than IWR-4 | – | – | – | – | – | – | – | – |
| O=C(Nc1cccc2cccnc12)c1ccc(N2C(=O)[C@@H]3[C@H](C2=O)[C@@H]2C=C[C@H]3C2)cc1 [IWR-1] | suppressed fin regeneration | – | decreased | – | able to regenerate tissue to nearly normal levels after chemical removal | lethargy and decreased appetite | decreased number | inhibit accumulation of β-catenin | can be blocked | decreased | little turn-over of Axin2 | decrease in the expression of Axing |
